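Growth conditions: 96-well plates. Treatment: test compound, 48 hours, 5 concentrations. Analysis: linear interpolation between bracketing concentrations; unreached endpoints set to highest concentration. GI50: concentration for 50% inhibition of growth.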 The source made the active and inactive calls. Rule as the data show it: active = GI50 up to about 1.1 µM and inactive = higher.
What was measured:
Test in all cases: inhibition of tumour cell growth, NCI panel, 48 h
KM12 = tested on: KM12
MDA-N = tested on: MDA-N
UACC-62 = tested on: UACC-62
MOLT-4 = tested on: MOLT-4
SF-268 = tested on: SF-268
RPMI-8226 = tested on: RPMI-8226
SK-MEL-5 = tested on: SK-MEL-5
A498 = tested on: A498
LOX IMVI = tested on: LOX IMVI
CAKI-1 = tested on: CAKI-1
M14 = tested on: M14
SNB-19 = tested on: SNB-19
SNB-75 = tested on: SNB-75
OVCAR-4 = tested on: OVCAR-4
NCI-H522 = tested on: NCI-H522
RXF 393 = tested on: RXF 393
SN12C = tested on: SN12C
HCT-116 = tested on: HCT-116
IGROV-1 = tested on: IGROV-1
DU-145 = tested on: DU-145
HL-60 = tested on: HL-60
UO-31 = tested on: UO-31
ACHN = tested on: ACHN
Hs-578T = tested on: Hs-578T
EKVX = tested on: EKVX
NCI/ADR-RES = tested on: NCI/ADR-RES
A549 = tested on: A549
COLO 205 = tested on: COLO 205
HOP-62 = tested on: HOP-62
MCF7 = tested on: MCF7
SK-MEL-2 = tested on: SK-MEL-2
OVCAR-3 = tested on: OVCAR-3
NCI-H23 = tested on: NCI-H23
SF-295 = tested on: SF-295
TK-10 = tested on: TK-10
SW-620 = tested on: SW-620
T47D = tested on: T47D
HT-29 = tested on: HT-29
MDA-MB-435 = tested on: MDA-MB-435
OVCAR-8 = tested on: OVCAR-8
OVCAR-5 = tested on: OVCAR-5
SK-OV-3 = tested on: SK-OV-3
K562 = tested on: K562
HCT-15 = tested on: HCT-15
CCRF-CEM = tested on: CCRF-CEM
HOP-92 = tested on: HOP-92
SF-539 = tested on: SF-539
NCI-H226 = tested on: NCI-H226
UACC-257 = tested on: UACC-257
Malme-3M = tested on: Malme-3M
786-0 = tested on: 786-0
U-251 = tested on: U-251
HCC 2998 = tested on: HCC 2998
PC-3 = tested on: PC-3
SR = tested on: SR
MDA-MB-231 = tested on: MDA-MB-231
NCI-H460 = tested on: NCI-H460
SK-MEL-28 = tested on: SK-MEL-28

In the case of `C[n+]1cccc2ccc(OC(=O)c3ccccc3)cc21`, the GI50 (KM12) is reported as > 100 µM (inactive), the GI50 (MDA-N) is reported as > 100 µM (inactive) and the GI50 (UACC-62) is reported as > 100 µM (inactive). For the same compound, the GI50 (MOLT-4) was > 100 µM (inactive), the GI50 (SF-268) was > 100 µM (inactive) and the GI50 (RPMI-8226) was > 100 µM (inactive). The GI50 (SK-MEL-5) was > 100 µM (inactive), the GI50 (A498) was > 100 µM (inactive) and the GI50 (LOX IMVI) was > 100 µM (inactive). The GI50 (CAKI-1) was > 100 µM (inactive), the GI50 (M14) was > 100 µM (inactive) and the GI50 (SNB-19) was > 100 µM (inactive). For the same compound, the GI50 (SNB-75) was > 100 µM (inactive), the GI50 (OVCAR-4) was > 100 µM (inactive) and the GI50 (NCI-H522) was > 100 µM (inactive). For the same compound, the GI50 (RXF 393) was > 100 µM (inactive), the GI50 (SN12C) was > 100 µM (inactive) and the GI50 (HCT-116) was > 100 µM (inactive). For the same compound, the GI50 (IGROV-1) was > 100 µM (inactive), the GI50 (DU-145) was > 100 µM (inactive) and the GI50 (HL-60) was > 10 µM (inactive). For the same compound, the GI50 (UO-31) was > 100 µM (inactive), the GI50 (ACHN) was > 100 µM (inactive) and the GI50 (Hs-578T) was > 100 µM (inactive). For the same compound, the GI50 (EKVX) was > 100 µM (inactive), the GI50 (NCI/ADR-RES) was > 100 µM (inactive) and the GI50 (A549) was > 100 µM (inactive). The GI50 (COLO 205) was > 100 µM (inactive), the GI50 (HOP-62) was > 100 µM (inactive) and the GI50 (MCF7) was > 100 µM (inactive). The GI50 (SK-MEL-2) was > 100 µM (inactive), the GI50 (OVCAR-3) was > 100 µM (inactive) and the GI50 (NCI-H23) was > 100 µM (inactive). For the same compound, the GI50 (SF-295) was > 100 µM (inactive), the GI50 (TK-10) was > 100 µM (inactive) and the GI50 (SW-620) was > 100 µM (inactive). The GI50 (T47D) was > 100 µM (inactive), the GI50 (HT-29) was > 100 µM (inactive) and the GI50 (MDA-MB-435) was > 100 µM (inactive). The GI50 (OVCAR-8) was > 100 µM (inactive), the GI50 (OVCAR-5) was > 100 µM (inactive) and the GI50 (SK-OV-3) was > 100 µM (inactive). For the same compound, the GI50 (K562) was > 100 µM (inactive), the GI50 (HCT-15) was over 100 µM and the GI50 (CCRF-CEM) was > 10 µM (inactive). For the same compound, the GI50 (HOP-92) was > 100 µM (inactive), the GI50 (SF-539) was > 100 µM (inactive) and the GI50 (NCI-H226) was > 100 µM (inactive). The GI50 (UACC-257) was > 100 µM (inactive), the GI50 (Malme-3M) was > 100 µM (inactive) and the GI50 (786-0) was > 100 µM (inactive).
`C[n+]1c(-c2ccc(/C=N/NC(=S)N/N=C/c3ccc(-c4cn5ccsc5[n+]4C)cc3)cc2)cn2ccsc21` was tested, and the GI50 (KM12) was > 100 µM (inactive), the GI50 (MDA-N) was 45.2 µM (inactive) and the GI50 (MOLT-4) was > 100 µM (inactive). For the same compound, the GI50 (SF-268) was > 100 µM (inactive), the GI50 (U-251) was > 100 µM (inactive) and the GI50 (RPMI-8226) was 62.1 µM (inactive). The GI50 (SK-MEL-5) was > 100 µM (inactive), the GI50 (HCC 2998) was > 100 µM (inactive) and the GI50 (PC-3) was > 100 µM (inactive). For the same compound, the GI50 (M14) was > 100 µM (inactive), the GI50 (SNB-19) was > 100 µM (inactive) and the GI50 (SNB-75) was > 100 µM (inactive). The GI50 (OVCAR-4) was > 100 µM (inactive), the GI50 (NCI-H522) was > 100 µM (inactive) and the GI50 (SN12C) was > 100 µM (inactive). The GI50 (HCT-116) was > 100 µM (inactive), the GI50 (IGROV-1) was > 100 µM (inactive) and the GI50 (HL-60) was > 100 µM (inactive). For the same compound, the GI50 (UO-31) was > 100 µM (inactive), the GI50 (ACHN) was > 100 µM (inactive) and the GI50 (Hs-578T) was > 100 µM (inactive). The GI50 (EKVX) was > 100 µM (inactive), the GI50 (NCI/ADR-RES) was > 100 µM (inactive) and the GI50 (A549) was > 100 µM (inactive). For the same compound, the GI50 (COLO 205) was > 100 µM (inactive), the GI50 (HOP-62) was > 100 µM (inactive) and the GI50 (SR) was > 100 µM (inactive). For the same compound, the GI50 (MCF7) was > 100 µM (inactive), the GI50 (MDA-MB-231) was > 100 µM (inactive) and the GI50 (NCI-H460) was > 100 µM (inactive). The GI50 (SF-295) was > 100 µM (inactive), the GI50 (SK-MEL-28) was > 100 µM (inactive) and the GI50 (TK-10) was > 100 µM (inactive). For the same compound, the GI50 (SW-620) was > 100 µM (inactive), the GI50 (T47D) was > 100 µM (inactive) and the GI50 (HT-29) was 75.5 µM (inactive). The GI50 (MDA-MB-435) was 37.7 µM (inactive), the GI50 (OVCAR-8) was > 100 µM (inactive) and the GI50 (OVCAR-5) was > 100 µM (inactive). For the same compound, the GI50 (SK-OV-3) was > 100 µM (inactive), the GI50 (K562) was > 10 µM (inactive) and the GI50 (HCT-15) was over 100 µM. For the same compound, the GI50 (CCRF-CEM) was 36.6 µM (inactive), the GI50 (SF-539) was > 100 µM (inactive) and the GI50 (UACC-257) was > 100 µM (inactive). For the same compound, the GI50 (786-0) was > 100 µM (inactive).
